The test system of series [1] is HCT116 colon cancer cell. The experiment in a line: Cell cycle analysis (Experimental Example 1), HCT116. The series is classed as cell-based, human. As to conditions: HCT116, 1 μM, 48 hours, percentage of cells in G2/M. Here is the method: (§1) Colon cancer cell of human SW620(ATCC) or HCT116 (ATCC) was transferred to T25 flask(culture 7.5 ml) by RPMI1640 (Gibco/BR) medium or DMEM medium (Gibco/BR) containing 10% FBS (fetal bovine serum), respectively. Thereafter the cell was incubated for 12 hours at 37° C. in incubator. After the cell was incubated for 12 hours, 7.5 μl of DMSO was added to a culture used as control group, for the final concentration to be 0.1%. In order to use in experiment, samples of various concentrations were prepared by dissolving the cinnamaldehyde derivatives of the present invention in DMSO. 7.5 μl of the prepared samples was added to a culture used as experimental group. Cell of control or experimental group was incubated for 48 hours.
(§2) For cell cycle analysis, incubated cell was removed from medium. Thereafter the incubated cell was separated from the flask by trypsin. Thus the cell was centrifuged at 300 g for 5 min. The cell was washed with phosphate buffer solution (PBS) to remove the residue medium from the cell. 3 ml of ethanol (70%) was added to the cell. The cell was fixed by being positioned at −20° C. for 12 hours. The fixed cell was centrifuged at 300 g for 3 min and washed with the cold PBS for two times to remove residual ethanol. The cell solution prepared by adding 500 μl of PBS to the cell was well mixed to produce the homogeneous state. 100 μg/ml RNase A 50 μl was added to the cell solution, thereafter the resulting cell solution was positioned at 37° C. for 30 min. The chromosomal DNA was stained by further adding 1 mg/ml propidium iodide (soluble in PBS) thereto.
(§3) Distribution of cell cycle of 20,000 stained cells were measured by using Becton-Dickinson FACS caliber (San Jose, Calif., USA).

Series [2] deals with SW620 colon cancer cell. The experiment in a line: Growth inhibition of SW620 colon cancer cell (GI50). The conditions noted are these: Homo sapiens, SW-620; concentration at which growth of SW620 colon cancer cell was inhibited to the 50%. The series is classed as cell-based, human. The protocol: as §1
(§4) HCT116 GI50 (μM) and SW620 GI50 (μM) mean to be the concentrations at which growth of HCT116 and SW620 colon cancer cell was inhibited to the 50%, respectively.

For series [3], the system named is HCT116 colon cancer cell. As to the kind of experiment: Growth inhibition of HCT116 colon cancer cell (GI50). The series is classed as cell-based, human. The conditions noted are these: Homo sapiens, HCT-116; concentration at which growth of HCT116 colon cancer cell was inhibited to the 50%. Here is the method: as §1, §4
Series [4] relates to SW620 colon cancer cell. The experiment in a line: Cell cycle analysis (Experimental Example 1), SW620. The class given is cell-based, human. As to conditions: SW620, 1 μM, 48 hours, percentage of cells in G2/M. The protocol: as §1, §2, §3
For series [5], the system named is SW620 colon cancer cell. The experiment in a line: Cell cycle distribution (Experimental Example 2), SW620. The class given is cell-based, human. As to conditions: SW620, 1 μM, 48 hours. The protocol:
(§5) SW620 or HCT116 as colon cancer cell was inoculated in 100 mm plate to the amount of 2×10^6 cells. Then, cinnamaldehyde derivative of the present invention (compound 16 or compound 35) was added to the plate in the concentration of 1 μM. Thereafter, the colon cancer cell was incubated for 48 hours. Trypsin was added to the plate, to separate the colon cancer cell from the plate. And 5 ml of PBS (phosphate buffer solution) was added to the plate, to prepare the cell mixture. The cell mixture was centrifuged at 1,500 rpm for 5 min for two times, to remove trypsin from the mixture. The residue was washed with PBS for two times, thus the resulting supernatant was discarded. 1 ml of PBS and 3˜5 ml of cool ethanol(70%) was added to the resulting residue. The cell was fixed by being positioned at −20° C. for 12 hours. The fixed cell was centrifuged at 1,500 rpm for 5 min and washed with the cool PBS for two times to remove residual ethanol. RNase(10 μg/ml) was added to the fixed cell, to remove RNA. And DNA of the fixed cell was dyed with PI(propidium iodide, 50 μg/ml). After the fixed cell was positioned at 37° C. for 30 min, cell cycles of 20,000 cells were measured by using Becton-Dickinson FACS caliber (San Jose, Calif., USA).
(§6) For control group, the same procedure was accomplished except that DMSO was used in place of the cinnamaldehyde derivative.

Series [6] has as its system HCT116 colon cancer cell. As to the kind of experiment: Cell cycle distribution (Experimental Example 2), HCT116. The series is classed as cell-based, human. The protocol: as §5, §6

Consider `O=CC(=Cc1ccccc1OCc1ccccc1)C(C=O)=Cc1ccccc1OCc1ccccc1` [Compound 16, 2,3-bis-(2-benzyloxy-benzylidene)succinaldehyde], for which the melting point (commonly the temperature, or range, at which the solid turns liquid) lay in the range of 120 to 121 °C. The “G2/M at 1 μM(%) HCT116” value in series [1] is on record as 43%. For the same compound, in series [2], the GI50 (usually the concentration giving 50% growth inhibition) worked out at 0.63 µM. Further, the concentration for 50% growth inhibition (GI50) in series [3] is 1.41 µM. Besides, the “G2/M at 1 μM(%) SW620” value in series [4] was found to be 80%. Besides, in series [5], the “Amount of cell (%) G0-G1” value is listed as 6.64%, the “Amount of cell (%) G2-M” value is reported as 80.21% and the “Amount of cell (%) S” value is 13.15%. In addition, in series [6] (HCT116, 1 μM, 48 hours), the “Amount of cell (%) G0-G1” value came to 22.36%, the “Amount of cell (%) G2-M” value amounted to 43.29% and the “Amount of cell (%) S” value is given as 34.35%. In series [6] (HCT116 and SW620, 1 μM, summary of table 3), the “Holding of cancer cell in stage G2/M (in words)” value was “held a cancer cell in the stage G2/M”.
Consider `CC(C)Oc1cccc(C=C(C=O)C(C=O)=Cc2cccc(OC(C)C)c2)c1` [Compound 21, 2,3-bis-(3-isopropyloxy-benzylidene)succinaldehyde], for which the melting point lay in the range of 116 to 117 °C. The “G2/M at 1 μM(%) HCT116” value in series [1] was found to be 75%. For the same compound, halving of growth in series [2] (GI50) required 0.61 µM. Moreover, the GI50 in series [3] stood at 4.23 µM. The “G2/M at 1 μM(%) SW620” value in series [4] turned out to be 74%.
Regarding `O=CC(=Cc1cccc(OCc2ccccc2)c1)C(C=O)=Cc1cccc(OCc2ccccc2)c1` [Compound 22, 2,3-bis-(3-benzyloxy-benzylidene)succinaldehyde], the melting point was 126 to 127 °C. Also, the “G2/M at 1 μM(%) HCT116” value in series [1] is on record as 68%. In series [2], the GI50 worked out at 3.58 µM. In series [3], this compound gave a GI50 of 7.59 µM. Besides, the “G2/M at 1 μM(%) SW620” value in series [4] stood at 65%.
The like results for `CCCOc1ccc(C=C(C=O)C(C=O)=Cc2ccc(OCCC)c(OC)c2)cc1OC` [Compound 23, 2,3-bis-(4-propyloxy-3-methoxybenzylidene)succinaldehyde] were, in that order, 95 to 96 °C, 50%, 2.28 µM, 0.62 µM and 56%.
In the case of `COc1cc(C=C(C=O)C(C=O)=Cc2ccc(OC(C)C)c(OC)c2)ccc1OC(C)C` [Compound 24, 2,3-bis-(4-isopropyloxy-3-methoxy-benzylidene)succinaldehyde], the melting point lay in the range of 119 to 120 °C. For the same compound, the “G2/M at 1 μM(%) HCT116” value in series [1] came out at 48%. Halving of growth in series [2] (GI50) required 0.91 µM. For the same compound, growth in series [3] was halved (GI50) at 0.71 µM. In addition, the “G2/M at 1 μM(%) SW620” value in series [4] is 55%.
In the same order, the values of `COc1cc(C=C(C=O)C(C=O)=Cc2ccc(OC(C)=O)c(OC)c2)ccc1OC(C)=O` [Compound 25, 2,3-bis-(4-acetyloxy-3-methoxy-benzylidene)succinaldehyde] are 149 to 151 °C, 43%, 66.3 µM, 17.7 µM and 48%.
The like results for `COc1cc(C=C(C=O)C(C=O)=Cc2ccc(OC(=O)c3ccccc3)c(OC)c2)ccc1OC(=O)c1ccccc1` [Compound 27, 2,3-bis-(4-benzoyloxy-3-methoxy-benzylidene)succinaldehyde] were, in that order, 107 to 110 °C, 79%, 13.9 µM, 2.95 µM and 77%.
Regarding `CC(C)Oc1ccc(C=C(C=O)C(C=O)=Cc2ccc(OC(C)C)cc2)cc1` [Compound 29, 2,3-bis-(4-isopropyloxy-benzylidene)succinaldehyde], the melting point fell in the range of 200 to 202 °C. For the same compound, in series [1], the “G2/M at 1 μM(%) HCT116” value was 49%. Besides, it took 1.06 µM to inhibit growth in series [2] by half (GI50). Moreover, in series [3], the GI50 turned out to be 0.82 µM. The “G2/M at 1 μM(%) SW620” value in series [4] is reported as 47%.
With `O=CC(=Cc1ccc(OCc2ccccc2)cc1)C(C=O)=Cc1ccc(OCc2ccccc2)cc1` [Compound 31, 2,3-bis-(4-benzyloxy-benzylidene)succinaldehyde], the melting point was in the range of 119 to 120 °C. Also, in series [1], the “G2/M at 1 μM(%) HCT116” value amounted to 64%. This compound also showed a GI50 in series [2] of 7.38 µM. In series [3], this compound showed a GI50 of 3.58 µM. Further, the “G2/M at 1 μM(%) SW620” value in series [4] amounted to 62%.
With `O=CC(=Cc1ccc(OC(=O)c2ccccc2)cc1)C(C=O)=Cc1ccc(OC(=O)c2ccccc2)cc1` [Compound 32, 2,3-bis-(4-benzoyloxy-benzylidene)succinaldehyde], the melting point is 207 to 208 °C. The “G2/M at 1 μM(%) HCT116” value in series [1] was found to be 56%. In series [2], this compound registered a GI50 of 5.97 µM. The same compound returned a GI50 in series [3] of 11.9 µM. In addition, the “G2/M at 1 μM(%) SW620” value in series [4] is on record as 52%.
The compound `O=CC(=Cc1ccc(OC(=O)c2ccccc2F)cc1)C(C=O)=Cc1ccc(OC(=O)c2ccccc2F)cc1` [Compound 33, 2,3-bis-(4-(2-fluorobenzoyloxy)benzylidene)succinaldehyde] returned a melting point of 197 to 199 °C. The “G2/M at 1 μM(%) HCT116” value in series [1] was determined as 72%. Also, the GI50 in series [2] was determined as 5.57 µM. Also, growth in series [3] was halved (GI50) at 7.43 µM. Besides, the “G2/M at 1 μM(%) SW620” value in series [4] was 71%.
For the compound `O=CC(=Cc1ccc(OC(=O)c2ccc(Br)cc2)cc1)C(C=O)=Cc1ccc(OC(=O)c2ccc(Br)cc2)cc1` [Compound 34, 2,3-bis-(4-(4-bromobenzoyloxy)benzylidene)succinaldehyde], the melting point was in the range of 223 to 225 °C. Also, in series [1], the “G2/M at 1 μM(%) HCT116” value was determined as 60%. Further, the GI50 in series [2] is 16.7 µM. The compound further registered a GI50 in series [3] of 30.4 µM. In addition, in series [4], the “G2/M at 1 μM(%) SW620” value is reported as 62%.
The compound `O=CC(=Cc1cccc(OCc2ccc(Cl)cc2)c1)C(C=O)=Cc1cccc(OCc2ccc(Cl)cc2)c1` [Compound 36, 2,3-bis-(3-(4-chlorobenzyloxy)-benzylidene)succinaldehyde] showed a melting point of 193 to 194 °C. Moreover, in series [1], the “G2/M at 1 μM(%) HCT116” value was 41%. Also, the GI50 in series [2] is 6.3 µM. For the same compound, it took 7.5 µM to inhibit growth in series [3] by half (GI50). For the same compound, in series [4], the “G2/M at 1 μM(%) SW620” value was found to be 42%.
On to `COc1ccc(COc2cccc(C=C(C=O)C(C=O)=Cc3cccc(OCc4ccc(OC)cc4)c3)c2)cc1` [Compound 37, 2,3-bis-(3-(4-methoxybenzyloxy)-benzylidene)succinaldehyde], for which the melting point lay within 117 to 119 °C. The “G2/M at 1 μM(%) HCT116” value in series [1] came to 35%. In series [2], this compound came in with a GI50 of 5.1 µM. In series [3], this compound gave a GI50 of 3.4 µM. Also, in series [4], the “G2/M at 1 μM(%) SW620” value is 46%.
The like results for `O=CC(=Cc1ccc(OCc2ccc(Cl)cc2)cc1)C(C=O)=Cc1ccc(OCc2ccc(Cl)cc2)cc1` [Compound 38, 2,3-bis-(4-(4-chlorobenzyloxy)-benzylidene)succinaldehyde] were, in that order, 208 to 209 °C, 44%, 2.2 µM, 3.8 µM and 53%.
Turning to `COc1ccc(COc2ccc(C=C(C=O)C(C=O)=Cc3ccc(OCc4ccc(OC)cc4)cc3)cc2)cc1` [Compound 39, 2,3-bis-(4-(4-methoxybenzyloxy)-benzylidene)succinaldehyde], the melting point was 218 to 220 °C. Also, the “G2/M at 1 μM(%) HCT116” value in series [1] was determined as 38%. In addition, the GI50 in series [2] is 6.8 µM. Besides, growth in series [3] was halved (GI50) at 3.7 µM. The “G2/M at 1 μM(%) SW620” value in series [4] is given as 48%.

(Values after US6949682B2, “Cinnamaldehyde derivatives inhibiting growth of tumor cell and regulating cell cycle, preparations and pharmaceutical compositions thereof” (Korea Research Institute of Bioscience and Biotechnology, priority 2003, dated 2005).)
